Reference: US4841067A, “Novel amino acid derivatives” (Kissei Pharmaceutical Co., Ltd., priority 1985, dated 1989)

Tests used:
human renin = target: T1, human renin (Homo sapiens, UniProt P00797); assay: Human renin-sheep renin substrate reaction system in vitro (angiotensin I by radioimmunoassay); type: biochemical; conditions: pH 7.4, 37° C., 15 minutes, read-out: IC50 (molar concentration which produced 50% inhibition)
T1 sequence (P00797 67-406): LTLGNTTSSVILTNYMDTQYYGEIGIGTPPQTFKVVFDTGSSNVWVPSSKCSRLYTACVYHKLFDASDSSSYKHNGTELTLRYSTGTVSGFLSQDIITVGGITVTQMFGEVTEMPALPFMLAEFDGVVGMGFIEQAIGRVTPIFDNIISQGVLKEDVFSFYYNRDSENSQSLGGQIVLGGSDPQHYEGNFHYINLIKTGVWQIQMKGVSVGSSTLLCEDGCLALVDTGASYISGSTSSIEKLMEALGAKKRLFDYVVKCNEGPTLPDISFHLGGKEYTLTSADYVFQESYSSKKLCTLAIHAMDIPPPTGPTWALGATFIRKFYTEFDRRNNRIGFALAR
Experimental: Human renin-sheep renin substrate reaction system in vitro To a mixture containing 200 μl of a 125 mM pyrophosphate buffer (ph 7.4), 25 μl of a 20 mM aqueous solution of […] as an angiotensin converting enzyme inhibitor, 50 μl of semipurified sheep renin substrate (4400 ng angiotensin I/ml) 50 μl of dimethyl sulfoxide solution of a dipeptide of the present invention and 150 μl of deionized water was added 25 μl of purified human renin (20-30 ng angiotensin I/hr). The mixture was incubated for 15 minutes on a water bath at 37° C., and the reaction mixture was allowed to stand for 5 minutes on a water bath at 100° C. to stop the reaction. After cooling, 200 μl of the solution were taken up and the amount of angiotensin I produced by the addition of renin was determined by radioimmunoassay. The inhibitory effect was calculated by the following equation. [formula] As a control, the same procedure as above was carried out by using 50 μl of dimethyl sulfoxide alone in place of the 50 μl of dimethyl sulfoxide solution containing an amino acid derivative of the present invention. The molar concentration which produced 50% inhibition (IC50) was calculated from the inhibition value obtained, and the results are shown below.

marmoset = assay: Hypotensive effect in marmoset (furosemide-induced high renin state, i.v. injection); type: in vivo, common marmoset; conditions: 2.5 mg/kg i.v., conscious male marmoset, furosemide pretreated
Experimental: Hypotensive effect in marmoset
The experiment was carried out by using common marmoset as described in K. G. Hofbauer et al., Clinical and Experimental Hypertension-Theory and Practice, Vol. A5, No. 7 & 8 (1983), pages 1237-1247.
Furosemide was orally administered three times to common marmoset at 15 mg per kilogram per day every other day to create a high renin state. Blood pressure of consious marmoset was measured 2 days after the last administration of furosemide.
Measurement of blood pressure
Male common marmoset weighing 325 g was lightly anesthetized by ketamine hydrochloride (Ketalar, produced by Parke Davis, 20 mg/kg i.m.), and their carotid artery and vein exposed.. Catheters being filled with a heparin solution was subcutaneously inserted into the carotid artery and vein from the dorsum. After suturing of the opened part, the marmosets were placed on a heated mat. After complete recovery from the anesthesia, an amino acid derivative of the present invention (2.5 mg/kg) was intravenously injected through the venous catheter.
The arterial catheter was connected to a pressure transducer and blood pressure was recorded on the polygraph.

Compound | IC50 (human renin) | other results
CNC(=O)C(O)[C@H](CC(C)C)NC(=O)[C@H](Cc1cnc[nH]1)NC(=O)C(CC(=O)NCCc1ccccc1)Cc1cccc2ccccc12 (mixture of isomers) [(2RS,3S)-3-{N-[(+)-2-(1-naphthylmethyl)-3-(phenethylcarbamoyl)propionyl]-L-histidyl}-amino-2-hydroxy-5-methylhexanoylmethylamide] | 700 nM | 
CC(C)CCNC(=O)C[C@H](O)[C@H](CC(C)C)NC(=O)[C@H](Cc1cnc[nH]1)NC(=O)C(CC(=O)NCCc1ccccc1)Cc1cccc2ccccc12 (single isomer, unassigned) [N-[(+)-2-(1-Naphthylmethyl)-3-(phenethylcarbamoyl)propionyl]-L-histidylstatylisoamylamide] | 72 nM | 
CC(C)CCNCC(O)[C@H](CC(C)C)NC(=O)[C@H](Cc1cnc[nH]1)NC(=O)C(CC(=O)NCCc1ccccc1)Cc1cccc2ccccc12 (single isomer, unassigned) [(2RS, 3S)-N-Isoamyl-3-{N-[(+)-2-(1-naphthylmethyl)-3-(phenethylcarbamoyl)propionyl]-L-histidyl}-amino-2-hydroxy-5-methylhexylamine] | 350 nM | 
COC(=O)C[C@H](O)[C@H](CC(C)C)NC(=O)[C@H](Cc1cnc[nH]1)NC(=O)C(CC(=O)NCCc1ccccc1)Cc1cccc2ccccc12 (single isomer, unassigned) [Methyl N-[(+)-2-(1-naphthylmethyl)-3-(phenethylcarbamoyl)propionyl]-L-histidylstatinate] | 310 nM | 
COC(=O)[C@@H](O)[C@H](CC(C)C)NC(=O)[C@H](Cc1cnc[nH]1)NC(=O)C(CC(=O)NCCc1ccccc1)Cc1cccc2ccccc12 (single isomer, unassigned) | 1300 nM | 
CC(C)C[C@H](NC(=O)[C@H](Cc1c[nH]cn1)NC(=O)C(CC(=O)NCCc1ccccc1)Cc1cccc2ccccc12)C(O)C(=O)OCc1ccccc1 (single isomer, unassigned) | 42 nM | 
CC(C)C[C@H](NC(=O)[C@H](Cc1cnc[nH]1)NC(=O)C(CC(=O)NCCc1ccccc1)Cc1cccc2ccccc12)C(O)CNCc1ccccc1 (single isomer, unassigned) [(2RS, 3S)-N-Benzyl-3-{N-[(+)-2-(1-naphthylmethyl)-3-(phenethylcarbamoyl)propiobnyl]-L-histidyl}amino-2-hydroxyl-5-methylhexylamine] | 150 nM | 
CC(C)C[C@H](NC(=O)[C@H](Cc1cnc[nH]1)NC(=O)C(CC(=O)NCCc1ccccc1)Cc1cccc2ccccc12)C(O)COCc1ccccc1 (single isomer, unassigned) [(2RS, 3S)-3-{N-[(+)-2-(1-naphthylmethyl)-3-phenethylcarbamoyl)propionyl]-L-histidyl}amino-2-hydroxy-5-methylhexyl benzyl ether] | 470 nM | 
CC(C)CCNC(=O)C(O)[C@H](CC(C)C)NC(=O)[C@H](Cc1cnc[nH]1)NC(=O)C(CC(=O)NCCc1ccccc1)Cc1cccc2ccccc12 (single isomer, unassigned) | 250 nM | 
COC(=O)C(O)[C@H](CC(C)C)NC(=O)[C@H](Cc1c[nH]cn1)NC(=O)C(CC(=O)NCCc1ccccc1)Cc1cccc2ccccc12 (mixture of isomers) [methyl (2RS, 3S)-3-{N-[(+)-2-(1-naphthylmethyl)-3-(phenethylcarbamoyl)propionyl]-L-histidyl}amino-2-hydroxy-5-methylhexanoate] | 49 nM | Diastolic blood pressure (marmoset; 1 min after injection (control 72)): 56 mm Hg; Systolic blood pressure (marmoset; 1 min after injection (control 103)): 85 mm Hg; Diastolic blood pressure (marmoset; 3 min after injection (control 72)): 61 mm Hg; Systolic blood pressure (marmoset; 3 min after injection (control 103)): 91 mm Hg; Diastolic blood pressure (marmoset; 5 min after injection (control 72)): 62 mm Hg; Systolic blood pressure (marmoset; 5 min after injection (control 103)): 92 mm Hg; Diastolic blood pressure (marmoset; 10 min after injection (control 72)): 70 mm Hg; Systolic blood pressure (marmoset; 10 min after injection (control 103)): 102 mm Hg; Diastolic blood pressure (marmoset; 15 min after injection (control 72)): 72 mm Hg; Systolic blood pressure (marmoset; 15 min after injection (control 103)): 103 mm Hg
CC(C)C[C@H](NC(=O)[C@H](Cc1cnc[nH]1)NC(=O)C(CC(=O)NCCc1ccccc1)Cc1cccc2ccccc12)C(O)C(=O)N(C)C (single isomer, unassigned) | 2800 nM | 
CNC(=O)C(O)[C@H](CC(C)C)NC(=O)[C@H](Cc1cnc[nH]1)NC(=O)C(CC(=O)NCCc1ccccc1)Cc1cccc2ccccc12 (single isomer, unassigned) [listing 1 of 2 here] | 390 nM | 
CC(C)C[C@H](NC(=O)[C@H](Cc1c[nH]cn1)NC(=O)C(CC(=O)NCCc1ccccc1)Cc1cccc2ccccc12)C(O)CO (single isomer, unassigned) [(2RS, 3S)-3-{N-[(+)-2-(1-naphthylmethyl)-3-(phenethylcarbamoyl)propionyl]-L-histidyl}amino-2-hydroxy-5-methylhexanol] | 590 nM | 
CC(C)C[C@H](NC(=O)[C@H](Cc1c[nH]cn1)NC(=O)C(CC(=O)NCCc1ccccc1)Cc1cccc2ccccc12)[C@@H](O)CCO (single isomer, unassigned) | 5900 nM | 
COC(=O)[C@H](O)[C@H](CC(C)C)NC(=O)[C@H](Cc1cnc[nH]1)NC(=O)C(CC(=O)NCCc1ccccc1)Cc1cccc2ccccc12 (single isomer, unassigned) | 31 nM | 
CNC(=O)C[C@H](O)[C@H](CC(C)C)NC(=O)[C@H](Cc1cnc[nH]1)NC(=O)C(CC(=O)NCCc1ccccc1)Cc1cccc2ccccc12 (single isomer, unassigned) [N-[(+)-2-(1-Naphthylmethyl)-3-(phenethylcarbamoyl)propionyl]-L-histidylstatylmethylamide] | 740 nM | 
CC(C)CCOC(=O)C(O)[C@H](CC(C)C)NC(=O)[C@H](Cc1c[nH]cn1)NC(=O)C(CC(=O)NCCc1ccccc1)Cc1cccc2ccccc12 (single isomer, unassigned) | 61 nM | 
CC(C)C[C@H](NC(=O)[C@H](Cc1cnc[nH]1)NC(=O)C(CC(=O)NCCc1ccccc1)Cc1cccc2ccccc12)C(O)C(=O)NCc1ccccc1 (single isomer, unassigned) | 100 nM | 
CNC(=O)C(O)[C@H](CC(C)C)NC(=O)[C@H](Cc1cnc[nH]1)NC(=O)C(CC(=O)NCCc1ccccc1)Cc1cccc2ccccc12 (single isomer, unassigned) [listing 2 of 2 here] | 4500 nM | 
CC(C)CCOCC(O)[C@H](CC(C)C)NC(=O)[C@H](Cc1c[nH]cn1)NC(=O)C(CC(=O)NCCc1ccccc1)Cc1cccc2ccccc12 (single isomer, unassigned) [(2RS, 3S)-3-{N-[(+)-2-(1-Naphthylmethyl)-3-(phenethylcarbamoyl)propionyl]-L-histidyl}amino-2-hydroxy-5-methylhexyl isoamyl ether] | 280 nM | 
COCC(O)[C@H](CC(C)C)NC(=O)[C@H](Cc1cnc[nH]1)NC(=O)C(CC(=O)NCCc1ccccc1)Cc1cccc2ccccc12 (single isomer, unassigned) [(2RS, 3S)-3-{N-(+)-2-(1-Naphthylmethyl)-3-(phenethylcarbamoyl)propionyl]-L-histidyl}amino-2-hydroxy-5-methylhexyl methyl ether] | 790 nM | 
